Measured values: patent publication US4350704A, “Substituted acyl derivatives of octahydro-1H-indole-2-carboxylic acids” (Warner-Lambert Company, priority 1981, dated 1982)
Structures can show the parent of a compound that is named as a salt.

Each compound was assayed against T1, guinea pig serum ACE (Cavia porcellus, UniProt H0UWL7) (assay: In vitro ACE Assay: angiotensin converting enzyme inhibitory activity). Settings: 10 min preincubation, 3H-hippuryl-glycylglycine substrate, 60 minute incubation at 37° C., read-out: IC50, Activity of Compounds of Formula V.
T1 construct: ACE from guinea pig serum; from tissue; host or cells: guinea pig serum
T1 sequence (H0UWL7 33-1302): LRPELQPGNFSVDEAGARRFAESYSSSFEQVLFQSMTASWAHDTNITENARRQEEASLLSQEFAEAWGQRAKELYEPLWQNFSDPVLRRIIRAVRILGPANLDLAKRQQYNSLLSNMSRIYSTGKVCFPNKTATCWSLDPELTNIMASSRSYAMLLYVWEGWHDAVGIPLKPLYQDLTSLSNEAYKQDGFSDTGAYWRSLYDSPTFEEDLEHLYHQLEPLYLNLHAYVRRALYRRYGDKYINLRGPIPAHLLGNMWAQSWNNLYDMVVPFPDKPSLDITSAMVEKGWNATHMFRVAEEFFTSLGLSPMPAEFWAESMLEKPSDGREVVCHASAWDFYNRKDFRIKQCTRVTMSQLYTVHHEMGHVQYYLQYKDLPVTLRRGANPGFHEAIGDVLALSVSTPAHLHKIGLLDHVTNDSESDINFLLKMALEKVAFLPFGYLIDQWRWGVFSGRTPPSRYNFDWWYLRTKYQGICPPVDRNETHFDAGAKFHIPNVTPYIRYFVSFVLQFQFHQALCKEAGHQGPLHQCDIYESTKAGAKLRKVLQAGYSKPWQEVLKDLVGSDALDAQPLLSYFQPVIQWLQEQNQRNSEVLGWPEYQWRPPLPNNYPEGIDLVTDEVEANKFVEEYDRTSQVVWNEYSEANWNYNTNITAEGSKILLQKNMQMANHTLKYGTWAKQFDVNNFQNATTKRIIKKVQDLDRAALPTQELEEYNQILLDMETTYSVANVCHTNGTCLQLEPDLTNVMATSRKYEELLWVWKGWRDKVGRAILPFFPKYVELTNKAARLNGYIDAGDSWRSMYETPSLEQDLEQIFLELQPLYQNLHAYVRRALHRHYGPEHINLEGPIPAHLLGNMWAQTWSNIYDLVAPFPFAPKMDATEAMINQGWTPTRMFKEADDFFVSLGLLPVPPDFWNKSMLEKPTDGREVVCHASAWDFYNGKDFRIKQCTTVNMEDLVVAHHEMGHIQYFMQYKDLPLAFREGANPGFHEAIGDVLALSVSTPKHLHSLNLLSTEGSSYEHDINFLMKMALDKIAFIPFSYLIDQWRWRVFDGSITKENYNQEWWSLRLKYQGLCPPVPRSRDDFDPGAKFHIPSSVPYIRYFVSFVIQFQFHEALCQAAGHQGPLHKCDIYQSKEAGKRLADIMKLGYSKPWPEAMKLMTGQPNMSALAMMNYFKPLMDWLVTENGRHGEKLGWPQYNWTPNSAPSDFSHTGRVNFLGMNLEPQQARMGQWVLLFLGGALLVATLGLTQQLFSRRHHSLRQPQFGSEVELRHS
Assay type: biochemical
Protocol: In vitro ACE Assay: Angiotensin converting enzyme (ACE) inhibitory activity is determined by assaying guinea pig serum ACE in the presence and absence of the test compound. ACE from guinea pig serum and the test compounds are preincubated for 10 minutes before the addition of the labelled substrate ^3 H-hippuryl-glycylglycine. […] ACE cleaves the hippuryl-glycyl bond to form the dipeptide glycyl-glycine and ^3 H-hippuric acid. The ^3 H-hippuric acid is then extracted with ethyl acetate and the ACE inhibition of a given sample calculated on the basis of the ^3 H-hippuric acid generated.

| IC50 | SMILES |
| --- | --- |
| 0.058 µM | CC(C)(C)C(=O)SCCC(=O)N1[C@H](C(=O)O)C[C@@H]2CCCC[C@@H]21 (relative stereo) [V: R=H; R1=H; R2=(CH3)3CCO; dl] |
| 0.021 µM | O=C(O)[C@@H]1C[C@@H]2CCCC[C@@H]2N1C(=O)CCS (relative stereo) [V: R=H; R1=H; R2=H; --, (2α, 3aβ, 7aβ)-Octahydro-1-(3-mercaptopropanoyl)-1H-indole-2-carboxylic Acid] |
| 0.45 µM | CC(=O)SCCC(=O)N1[C@H](C(=O)O)C[C@@H]2CCCC[C@@H]21 (relative stereo) [V: R=H; R1=H; R2=CH3CO; --, (2α, 3aβ, 7aβ)-Octahydro-1-[3-(acetylthio)propanoyl]-1H-indole-2-carboxylic Acid] |
| 3.8 µM | CCOC(=O)[C@@H]1C[C@@H]2CCCC[C@@H]2N1C(=O)CCSC(C)=O (relative stereo) [V: R=C2H5; R1=H; R2=CH3CO; --, Ethyl (2α, 3aβ, 7aβ)-Octahydro-1-[3-(acetylthio)propanoyl]-1H-indole-2-carboxylate] |
| 0.54 µM | CC(CSC(=O)c1ccccc1)C(=O)N1[C@H](C(=O)O)C[C@@H]2CCCC[C@@H]21 (single isomer, unassigned; diastereomer a) [V: R=H; R1=CH3; R2=PhCO; l, A, (1)-(2α, 3aβ, 7aβ)-Octahydro-1-[3-(benzoylthio)-2-methylpropanoyl]-1H-indole-2-carboxylic Acid (Diastereomer A)] |
| 0.0052 µM | CC(CS)C(=O)N1[C@H](C(=O)O)C[C@@H]2CCCC[C@@H]21 (single isomer, unassigned; diastereomer a) [V: R=H; R1=CH3; R2=H; l, A, (1)-(2α, 3aβ, 7aβ)-Octahydro-1-(3-mercapto-2-methylpropanoyl)-1H-2-carboxylic Acid (Diastereomer A), Dicyclohexylamine Salt] |
